Measurements taken from PubChem BioAssay (NCI).
Several values for one entry are separate records, joined by “and”; a condition that tells them apart may be missing. Equal entries are not always repeated.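 Values below derive from 48-hour exposures of cells grown in 96-well plates, with endpoints linearly interpolated between the two concentrations bracketing the appropriate inhibition level. Abbreviation: GI50, concentration required for 50% inhibition of growth. The concentration for full growth arrest is given as TGI.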

How the values were obtained:
Assay in all cases: DTP human tumour cell line panel, 48 h
A498 renal = test system: A498 renal
M14 melanoma = test system: M14 melanoma
MDA-MB-231 breast = test system: MDA-MB-231 breast
MOLT-4 leukemia = test system: MOLT-4 leukemia
HT29 colon = test system: HT29 colon
BT-549 breast = test system: BT-549 breast
HCC-2998 colon = test system: HCC-2998 colon
PC-3 prostate = test system: PC-3 prostate
OVCAR-5 ovarian = test system: OVCAR-5 ovarian
HOP-92 NSCLC = test system: HOP-92 NSCLC

SMILES	TGI (A498 renal)	TGI (M14 melanoma)	TGI (MDA-MB-231 breast)	TGI (MOLT-4 leukemia)	TGI (HT29 colon)	TGI (BT-549 breast)	TGI (HCC-2998 colon)	TGI (PC-3 prostate)	TGI (OVCAR-5 ovarian)	TGI (HOP-92 NSCLC)	GI50 (A498 renal)	GI50 (M14 melanoma)	GI50 (MDA-MB-231 breast)	GI50 (MOLT-4 leukemia)	GI50 (HT29 colon)	GI50 (BT-549 breast)	GI50 (HCC-2998 colon)	GI50 (PC-3 prostate)	GI50 (OVCAR-5 ovarian)	GI50 (HOP-92 NSCLC)
O=C1CSC(c2cc3cc(Br)ccc3nc2Cl)N1c1ccc(Cl)cc1 (centres undefined)	> 100 µM	84.9 µM	> 100 µM	47.9 µM	> 100 µM	61.5 µM	41.7 µM	> 100 µM	> 100 µM	> 100 µM	–	–	–	–	–	–	–	–	–	–
O=[N+]([O-])c1ccc(N/N=C\c2cc(Br)ccc2O)nc1	> 100 µM	4.87 µM	4.76 µM	23.9 µM	> 100 µM	> 100 µM	> 100 µM	> 100 µM	> 100 µM	6.77 µM	6.11 µM	1220 nM	0.511 µM	0.347 µM	4.27 µM	4.95 µM	3.18 µM	1670 nM	5.51 µM	1.62 µM
CC(C)(CCCCC(C)(C)NC1=NCCO1)NC1=NCCO1	> 10 µM	> 10 µM	> 10 µM	> 10 µM	> 10 µM	–	> 10 µM	> 10 µM	> 10 µM	–	–	–	–	–	–	–	–	–	–	–
COc1ccc(/C=C2\C[C@H]3[C@@H]4CC=C5C[C@@H](O)CC[C@]5(C)[C@H]4CC[C@]3(C)\C2=N\O)cc1	71.7 µM	40.3 µM	> 100 µM	34.3 µM	> 100 µM	36.5 µM	–	> 100 µM	–	> 100 µM	–	–	–	–	–	–	–	–	–	–
COC(=O)C1=C(O)C(C(=O)OC)[C@@]2(O)[C@@H](C(=O)OC)[C@H](C)C[C@@H]1[C@@H]2C(=O)OC (some centres undefined)	44.3 µM	39.9 µM	40.3 µM	> 100 µM	71.3 µM	> 100 µM	30.9 µM	–	98.9 µM	–	–	–	–	–	–	–	–	–	–	–
NCCc1ccc(S(=O)(=O)O)cc1[N+](=O)[O-]	> 100 µM	> 100 µM	> 100 µM	> 32.4 µM	> 100 µM	> 100 µM	–	> 100 µM	> 100 µM	> 100 µM	–	–	–	–	–	–	–	–	–	–
COc1cc2c(cc1OCCCOc1cc3c(cc1OC)C(=O)N1CCC[C@H]1C(=O)N3)N=C[C@@H]1CCCN1C2=O	37.9 µM	55.4 µM	44 µM	1.41 µM	35.4 µM	83.3 µM	31 µM	57 µM	59.6 µM	–	–	–	–	–	–	–	–	–	–	–
C/C=C(/CCC1NCCc2c1[nH]c1ccccc21)[Si](C)(C)C (centres undefined)	72 µM and 23.5 µM	–	–	–	–	–	–	–	> 100 µM and 14.6 µM	90.1 µM and 11.9 µM	–	–	–	–	–	–	–	–	–	27 µM and 2.9 µM
COC(=O)C(C)NP(=O)(OCc1cccc(Cn2cnc3c(N)ncnc32)c1)Oc1ccccc1 (centres undefined)	> 100 µM	–	> 100 µM	> 100 µM	> 100 µM	> 100 µM	53.7 µM	> 100 µM	> 100 µM	> 100 µM	> 100 µM	–	51.7 µM	38.3 µM	> 100 µM	> 100 µM	10.9 µM	> 100000 nM	> 100 µM	54.1 µM
O=c1c(-c2ccccc2)c(SCCCN2CCCCC2)n(-c2ccccc2)c(=S)n1-c1ccccc1	29 µM	–	27.9 µM	47 µM	–	35.5 µM	16.8 µM	39.4 µM	> 100 µM	30.1 µM	–	–	–	–	–	–	–	–	–	–
NC(Cc1cc(I)c(Oc2ccc(O)c(I)c2)c(I)c1)C(=O)O (centres undefined)	92.6 µM	> 100 µM	> 100 µM	–	> 100 µM	> 100 µM	–	> 100 µM	> 100 µM	> 100 µM	–	–	–	–	–	–	–	–	–	–
Fc1ccc2c(c1)SC1=Nc3sc4cc(F)ccc4[n+]3CN12	33.5 µM	> 100 µM	44.3 µM	–	> 100 µM	43.6 µM	47.5 µM	> 100 µM	> 100 µM	51.6 µM	–	–	–	–	–	–	–	–	–	–
CC1C(OS(=O)(=O)c2ccc3[nH]c(=S)sc3c2)CC2C3(C)CCC2(C(C)C(=O)O)C(O)C13 (centres undefined)	> 100 µM	84.1 µM	> 100 µM	> 100 µM	35.4 µM	66 µM	> 100 µM	> 100 µM	93.3 µM	> 100 µM	–	–	–	–	–	–	–	–	–	–
O=c1[nH]c2ccccc2c2oc3ccccc3c12	> 100 µM	> 100 µM	> 100 µM	> 100 µM	> 100 µM	> 100 µM	> 100 µM	> 100 µM	–	> 100 µM	–	–	–	–	–	–	–	–	–	–
NCCCCNOCCCN	–	> 100 µM	–	> 100 µM	> 100 µM	> 100 µM	> 100 µM	> 100 µM	> 100 µM	> 100 µM	–	–	–	–	–	–	–	–	–	–
CC1=C(C(=O)NNC(=O)C[N+](C)(C)C)CC(C(=O)NNC(=O)C[N+](C)(C)C)=C(C)N1	> 100 µM	> 100 µM	> 100 µM	> 100 µM	> 100 µM	> 100 µM	> 100 µM	> 100 µM	> 100 µM	> 100 µM	–	–	–	–	–	–	–	–	–	–
C(=C\c1cc[n+](CCc2ccccc2)cc1)/c1ccccc1	–	31.5 µM	29.1 µM	69.4 µM	35.1 µM	57.9 µM	–	> 100 µM	88.5 µM	> 100 µM	–	–	–	–	–	–	–	–	–	–
CCc1nc(N)nc(N)c1-c1ccc(N2CCOCC2)c(N=[N+]=[N-])c1	> 100 µM	> 100 µM	> 100 µM	> 100 µM	> 100 µM	> 100 µM	> 100 µM	> 100 µM	> 100 µM	> 100 µM	–	–	–	–	–	–	–	–	–	–
CC(C)(C)OC(=O)CC(NC(=O)OCc1ccccc1)NC(=O)OC(C)(C)C (centres undefined)	–	–	–	55.6 µg/mL	–	–	–	–	–	–	76.4 µg/mL	56.8 µg/mL	52.8 µg/mL	23.5 µg/mL	–	14.2 µg/mL	94.4 µg/mL	–	–	69.2 µg/mL
COc1cc(S(=O)(=O)Nc2nc(-c3ccc(N=Cc4ccccc4O)cc3)cs2)ccc1Cl	> 100 µM	> 100 µM	> 100 µM	> 100 µM	> 100 µM	> 100 µM	> 100 µM	> 100 µM	> 100 µM	> 100 µM	–	–	–	–	–	–	–	–	–	–
CC(C)C(=O)Cc1ccc2ccccc2n1	> 100 µM	> 100 µM	> 100 µM	–	> 100 µM	> 100 µM	> 100 µM	> 100 µM	> 100 µM	> 100 µM	–	–	–	–	–	–	–	–	–	–
CCOC(=O)c1c(C)n(-c2ccc(C)cc2)c(=O)c2ccccc2c(=O)c2c(=O)ccc(=O)c1=2	–	42.9 µM	> 100 µM	11.4 µM	38.7 µM	57.9 µM	27.7 µM	56.6 µM	75.5 µM	38.2 µM	–	–	–	–	–	–	–	–	–	–
O=c1c2ccccc2nc2n1CCc1c-2[nH]c2ccccc12	–	32 µM	–	> 100 µM	–	–	–	40.9 µM	31.2 µM	31 µM	–	–	–	–	–	–	–	–	–	–
CC(=O)Nc1ccc2c(c1)C(=O)c1ccccc1-2	–	> 100 µM	–	> 100 µM	> 100 µM	–	> 100 µM	–	–	–	–	–	–	–	–	–	–	–	–	–
COc1cc(CCN)c(OC)c(OC)c1	> 100 µM	> 100 µM	> 100 µM	> 100 µM	> 100 µM	> 100 µM	–	> 100 µM	> 100 µM	> 100 µM	–	–	–	–	–	–	–	–	–	–
O=S1(=O)C(=C(c2ccccc2)c2ccccc2)S(=O)(=O)c2ccccc21	> 100 µM	–	–	> 100 µM	> 100 µM	–	> 100 µM	–	> 100 µM	50.8 µM	–	–	–	–	–	–	–	–	–	–
